From patent publication US8192962B2, “Processes for detecting toxic substances” (Daikin Industries, Ltd., priority 2001, dated 2012)

System: Metabolism protein genes
Test: DNA chip mRNA expression in yeast, metabolism protein genes (Table 7)
Type: cell-based, Saccharomyces cerevisiae S288C
Experimental: Yeast (Saccharomyces cerevisiae S288C (α SUC2mal mel gap2 CUP1)) were incubated at 25° C. on YPD medium (yeast extract 1%, polypepton 2%, glucose 2%). One of toxic chemical substances was added to the cells at logarithmic growth phase, and the cells were further incubated for two hours. Cells were cultured without any chemical substance in the same condition, and were used as control. Concentrations of the chemical substances were defined to inhibit the growth of the yeast but not lead to death.
After completion of the incubation, the culture was centrifuged to collect the cells. To the cells, sodium acetate buffer (50 mM sodium acetate, 10 mM EDTA, 1% SDS) was added, and the mixture was shaken at 65° C. for five minutes, followed by returning to room temperature, and obtaining the supernatant, of which the procedures were repeated two times. To the supernatant, ½ amount of a solution of phenol/chloroform was added, and the mixture was centrifuged to give a supernatant, which was added with an equal amount of chloroform, and the mixture was centrifuged to give a supernatant. To the supernatant, an equal amount of isopropanol containing 0.3 M sodium acetate was added, and the mixture was allowed to stand at room temperature for 30 minutes, after which the mixture was centrifuged to give a sediment of the whole RNAs. Seventy % ethanol was added to the sediment, and the mixture was again centrifuged to give a sediment, which was then dried and dissolved in water. mRNA was isolated from the whole RNAs as followings. In view of the fact that a poly A chain is attached to the 3′ terminus of mRNA, a polynucleotide having a poly T structure which was immobilized on the surface of latex beads was used to trap the mRNA, and then the mRNA was washed and eluted with spine column (Oligotex-dT30<Super>mRNA Purification Kit, Takara). Reverse transcription of the mRNA was conducted with a reverse transcriptase (Super Script II Reverse Transcriptase; catalogue No. 18064-014, GibcoBRL) using fluorescence-labeled nucleotides to give cDNAs that were introduced with Cy3-dUTP or Cy5-dUTP during the reverse transcription.
The labeled cDNAs were dissolved in TE buffer (10mM Tris-HCl/1 mM EDTA, pH8.0), and the solution was dropped on the DNA chip containing the whole genes of yeast (DNA Chip Research Inc. Japan) so that the cDNAs were hybridized on the DNA chip at 65° C. for over 12 hours. The fluoresces intensity of the DNA chip was read with a scanner, and the ratio relative to the fluorescence intensity resulting from the absence of chemical substance was estimated as the following, which is shown in Tables 1 to 9: […]

C=CC=O [(14), acrolein]
level of expressed mRNA in the presence/in the absence of chemical substance (yeast gene YKL060C): 0.8
The level of expressed mRNA in the presence of chemical substance/The level of expressed mRNA in the absence of chemical substance (yeast gene YKL091C): 1.5
The level of expressed mRNA in the presence of chemical substance/The level of expressed mRNA in the absence of chemical substance (yeast gene YKL104C): 0.8
level of expressed mRNA in the presence/in the absence of chemical substance (yeast gene YKL148C): 0.8
The level of expressed mRNA in the presence of chemical substance/The level of expressed mRNA in the absence of chemical substance (yeast gene YKL152C): 1.0
level of expressed mRNA in the presence/in the absence of chemical substance (yeast gene YKL157W): 0.8
The level of expressed mRNA in the presence of chemical substance/The level of expressed mRNA in the absence of chemical substance (yeast gene YKL213C): 0.9
The level of expressed mRNA in the presence of chemical substance/The level of expressed mRNA in the absence of chemical substance (yeast gene YKL215C): 1.0
level of expressed mRNA in the presence/in the absence of chemical substance (yeast gene YKR034W): 1.1
The level of expressed mRNA in the presence of chemical substance/The level of expressed mRNA in the absence of chemical substance (yeast gene YKR039W): 1.2
The level of expressed mRNA in the presence of chemical substance/The level of expressed mRNA in the absence of chemical substance (yeast gene YLL058W): 0.8
level of expressed mRNA in the presence/in the absence of chemical substance (yeast gene YLR006C): 1.0
level of expressed mRNA in the presence/in the absence of chemical substance (yeast gene YLR044C): 0.5
level of expressed mRNA in the presence/in the absence of chemical substance (yeast gene YLR056W): 0.7
level of expressed mRNA in the presence/in the absence of chemical substance (yeast gene YLR058C): 0.7
level of expressed mRNA in the presence/in the absence of chemical substance (yeast gene YLR081W): 1.0
level of expressed mRNA in the presence/in the absence of chemical substance (yeast gene YLR089C): 0.7
The level of expressed mRNA in the presence of chemical substance/The level of expressed mRNA in the absence of chemical substance (yeast gene YLR180W): 0.6
The level of expressed mRNA in the presence of chemical substance/The level of expressed mRNA in the absence of chemical substance (yeast gene YLR273C): 1.3
level of expressed mRNA in the presence/in the absence of chemical substance (yeast gene YLR284C): 1.3
The level of expressed mRNA in the presence of chemical substance/The level of expressed mRNA in the absence of chemical substance (yeast gene YLR299W): 1.3
The level of expressed mRNA in the presence of chemical substance/The level of expressed mRNA in the absence of chemical substance (yeast gene YLR300W): 0.6
The level of expressed mRNA in the presence of chemical substance/The level of expressed mRNA in the absence of chemical substance (yeast gene YLR303W): 3.8
level of expressed mRNA in the presence/in the absence of chemical substance (yeast gene YLR304C): 0.7
The level of expressed mRNA in the presence of chemical substance/The level of expressed mRNA in the absence of chemical substance (yeast gene YLR307W): 1.9
The level of expressed mRNA in the presence of chemical substance/The level of expressed mRNA in the absence of chemical substance (yeast gene YLR348C): 1.0
level of expressed mRNA in the presence/in the absence of chemical substance (yeast gene YLR354C): 0.9
level of expressed mRNA in the presence/in the absence of chemical substance (yeast gene YLR372W): 0.6
level of expressed mRNA in the presence/in the absence of chemical substance (yeast gene YML022W): 0.9
The level of expressed mRNA in the presence of chemical substance/The level of expressed mRNA in the absence of chemical substance (yeast gene YML054C): 2.1
The level of expressed mRNA in the presence of chemical substance/The level of expressed mRNA in the absence of chemical substance (yeast gene YML070W): 1.3
The level of expressed mRNA in the presence of chemical substance/The level of expressed mRNA in the absence of chemical substance (yeast gene YML100W): 1.2
The level of expressed mRNA in the presence of chemical substance/The level of expressed mRNA in the absence of chemical substance (yeast gene YMR008C): 0.7
level of expressed mRNA in the presence/in the absence of chemical substance (yeast gene YMR011W): 0.6
level of expressed mRNA in the presence/in the absence of chemical substance (yeast gene YMR015C): 0.8
The level of expressed mRNA in the presence of chemical substance/The level of expressed mRNA in the absence of chemical substance (yeast gene YMR020W): 1.1
The level of expressed mRNA in the presence of chemical substance/The level of expressed mRNA in the absence of chemical substance (yeast gene YMR081C): 1.8
level of expressed mRNA in the presence/in the absence of chemical substance (yeast gene YMR083W): 0.8
The level of expressed mRNA in the presence of chemical substance/The level of expressed mRNA in the absence of chemical substance (yeast gene YMR105C): 1.0
The level of expressed mRNA in the presence of chemical substance/The level of expressed mRNA in the absence of chemical substance (yeast gene YMR189W): 1.6
level of expressed mRNA in the presence/in the absence of chemical substance (yeast gene YMR205C): 0.5
level of expressed mRNA in the presence/in the absence of chemical substance (yeast gene YMR261C): 0.6
The level of expressed mRNA in the presence of chemical substance/The level of expressed mRNA in the absence of chemical substance (yeast gene YMR271C): 1.8
The level of expressed mRNA in the presence of chemical substance/The level of expressed mRNA in the absence of chemical substance (yeast gene YMR296C): 0.7
level of expressed mRNA in the presence/in the absence of chemical substance (yeast gene YMR323W): 1.2
The level of expressed mRNA in the presence of chemical substance/The level of expressed mRNA in the absence of chemical substance (yeast gene YNL012W): 1.0
level of expressed mRNA in the presence/in the absence of chemical substance (yeast gene YNL025C): 1.2
The level of expressed mRNA in the presence of chemical substance/The level of expressed mRNA in the absence of chemical substance (yeast gene YNL037C): 1.3
The level of expressed mRNA in the presence of chemical substance/The level of expressed mRNA in the absence of chemical substance (yeast gene YNL045W): 0.8
The level of expressed mRNA in the presence of chemical substance/The level of expressed mRNA in the absence of chemical substance (yeast gene YNL104C): 0.9
The level of expressed mRNA in the presence of chemical substance/The level of expressed mRNA in the absence of chemical substance (yeast gene YNL106C): 1.1
The level of expressed mRNA in the presence of chemical substance/The level of expressed mRNA in the absence of chemical substance (yeast gene YNL169C): 0.9
level of expressed mRNA in the presence/in the absence of chemical substance (yeast gene YNL192W): 0.7
The level of expressed mRNA in the presence of chemical substance/The level of expressed mRNA in the absence of chemical substance (yeast gene YNL231C): 0.9
The level of expressed mRNA in the presence of chemical substance/The level of expressed mRNA in the absence of chemical substance (yeast gene YNL322C): 1.2
The level of expressed mRNA in the presence of chemical substance/The level of expressed mRNA in the absence of chemical substance (yeast gene YNL331C): 7.5
The level of expressed mRNA in the presence of chemical substance/The level of expressed mRNA in the absence of chemical substance (yeast gene YNL332W): 3.0
The level of expressed mRNA in the presence of chemical substance/The level of expressed mRNA in the absence of chemical substance (yeast gene YNR002C): 1.2
The level of expressed mRNA in the presence of chemical substance/The level of expressed mRNA in the absence of chemical substance (yeast gene YNR019W): 1.0
The level of expressed mRNA in the presence of chemical substance/The level of expressed mRNA in the absence of chemical substance (yeast gene YNR033W): 0.9
The level of expressed mRNA in the presence of chemical substance/The level of expressed mRNA in the absence of chemical substance (yeast gene YNR059W): 1.0
The level of expressed mRNA in the presence of chemical substance/The level of expressed mRNA in the absence of chemical substance (yeast gene YOL058W): 1.5
level of expressed mRNA in the presence/in the absence of chemical substance (yeast gene YOL086C): 0.6
level of expressed mRNA in the presence/in the absence of chemical substance (yeast gene YOL108C): 0.9
level of expressed mRNA in the presence/in the absence of chemical substance (yeast gene YOL116W): 0.9
The level of expressed mRNA in the presence of chemical substance/The level of expressed mRNA in the absence of chemical substance (yeast gene YOL126C): 1.2
The level of expressed mRNA in the presence of chemical substance/The level of expressed mRNA in the absence of chemical substance (yeast gene YOL151W): 4.0
The level of expressed mRNA in the presence of chemical substance/The level of expressed mRNA in the absence of chemical substance (yeast gene YOL153C): 1.5
level of expressed mRNA in the presence/in the absence of chemical substance (yeast gene YOL156W): 0.9
The level of expressed mRNA in the presence of chemical substance/The level of expressed mRNA in the absence of chemical substance (yeast gene YOL165C): 9.1
level of expressed mRNA in the presence/in the absence of chemical substance (yeast gene YOR002W): 0.9
level of expressed mRNA in the presence/in the absence of chemical substance (yeast gene YOR085W): 0.7
The level of expressed mRNA in the presence of chemical substance/The level of expressed mRNA in the absence of chemical substance (yeast gene YOR099W): 0.7
level of expressed mRNA in the presence/in the absence of chemical substance (yeast gene YOR103C): 1.2
level of expressed mRNA in the presence/in the absence of chemical substance (yeast gene YOR108W): 0.9
level of expressed mRNA in the presence/in the absence of chemical substance (yeast gene YOR128C): 0.7
The level of expressed mRNA in the presence of chemical substance/The level of expressed mRNA in the absence of chemical substance (yeast gene YOR130C): 1.3
level of expressed mRNA in the presence/in the absence of chemical substance (yeast gene YOR142W): 0.8
level of expressed mRNA in the presence/in the absence of chemical substance (yeast gene YOR176W): 0.8
level of expressed mRNA in the presence/in the absence of chemical substance (yeast gene YOR178C): 1.0
level of expressed mRNA in the presence/in the absence of chemical substance (yeast gene YOR251C): 1.1
The level of expressed mRNA in the presence of chemical substance/The level of expressed mRNA in the absence of chemical substance (yeast gene YOR336W): 1.1
The level of expressed mRNA in the presence of chemical substance/The level of expressed mRNA in the absence of chemical substance (yeast gene YOR347C): 0.9
level of expressed mRNA in the presence/in the absence of chemical substance (yeast gene YOR348C): 1.2
The level of expressed mRNA in the presence of chemical substance/The level of expressed mRNA in the absence of chemical substance (yeast gene YPL017C): 1.6
level of expressed mRNA in the presence/in the absence of chemical substance (yeast gene YPL028W): 0.8
level of expressed mRNA in the presence/in the absence of chemical substance (yeast gene YPL057C): 0.7
level of expressed mRNA in the presence/in the absence of chemical substance (yeast gene YPL135W): 1.1
level of expressed mRNA in the presence/in the absence of chemical substance (yeast gene YPL148C): 1.6
The level of expressed mRNA in the presence of chemical substance/The level of expressed mRNA in the absence of chemical substance (yeast gene YPR026W): 1.5
level of expressed mRNA in the presence/in the absence of chemical substance (yeast gene YPR113W): 1.3
level of expressed mRNA in the presence/in the absence of chemical substance (yeast gene YPR165W): 1.0
The level of expressed mRNA in the presence of chemical substance/The level of expressed mRNA in the absence of chemical substance (yeast gene YPR167C): 4.2
level of expressed mRNA in the presence/in the absence of chemical substance (yeast gene YPR183W): 0.7
